Each structure is given as a SMILES string.

The test is described as follows: Bilirubin degradation assay. It is filed as biochemical. To be noted: for Avg. IB at pH 3.8 / Avg. IB at pH 7.4: 25 μg/mL IB, 24-hr incubation at room temperature, average of triplicate; for Δ IB (actual): pH 3.8 vs reference value (pH 7.4, 0% niacinamide leg); for Δ IB (predicted): predicted additive effect of niacinamide at pH 7.4 plus observed pH effect 2.323. The protocol:
The bilirubin degradation assay provides an in vitro method of determining how a material or composition affects bilirubin degradation. Three replicates of each test sample are prepared in a 96-well plate (e.g., a FALCON brand 96-well tissue culture plate or equivalent) at a total volume of 250 μl/well. A stock of 250 ug/ml indirect bilirubin (i.e., the unconjugated form of bilirubin most commonly found in blood serum) is made by dissolving bilirubin powder (Cayman Chemicals Company, Catalog #17161) in DMSO (Sigma, Catalog # D8414-100 ml) to yield a stock solution at 10× working concentration. Working concentration of bilirubin is set at 25 ug/ml for every well except negative/vehicle control wells. […] The positive control wells may be prepared by mixing 25 ul of 250 ug/ml bilirubin stock solution and 225 ul PBS (AccuGENE, Catalog #51225). For negative/vehicle control wells, 25 ul DMSO is used in place of bilirubin. Test sample wells contain 25 ul of 250 ug/ml bilirubin stock solution, 200 ul PBS and 25 ul of each treatment solution made as 10× concentrate stock, e.g., for 0.1% Niacinamide treatment, a 10× concentrate stock is made at 1%.
The pH of each sample is adjusted using 1M HCl pH titration is performed separately before the experiment set up to determine how much 1M HCl is needed for each leg to achieve targeting pH level. 1500 ul of a master working solution of each testing leg was made without bilirubin to accommodate threshold volume need for pH adjustment. The master solution for the vehicle control wells contain 150 ul DMSO and 1350 ul of a mixture of 1M HCl and PBS. […] Bilirubin is unstable when exposed to ambient light. Thus, for bilirubin positive control well pre-titration, DMSO was used as surrogate for bilirubin. […] For pre-titration test sample wells, 1500 ul of master solution is made by mixing 150 ul DMSO (surrogate for bilirubin stock), 150 ul 10× treatment stock, and a 1200 ul mixture of 1M HCl and PBS. For actual experimental set up, make: 1350 ul pre-mix in triplicate for each leg, less either DMSO (for vehicle control leg) or bilirubin (for positive control and treatment legs) but with matching volume of all other ingredients as determined by pre-titration. Then for vehicle control leg, add 25 ul DMSO per well followed by adding in 225 ul of the pre-mix. For all other legs, add 25 ul of 250 ug/ml bilirubin stock made in DMSO per well followed by adding in 225 ul of corresponding pre-mix. […] The plate(s) containing the test samples are covered with aluminum foil and placed on top of a microplate shaker (VWR, Catalog #12620-938). Incubation was carried out at room temperature for 24-hr with constant shaking at 150 rpm. […] Commercially available bilirubin quantification kit (Cell Biolab, Catalog # MET-5010) was used for bilirubin quantification. The assay is based on the Jendrassik-Grof method in which diazotized sulfanilic acid reacts with bilirubin to form azobilirubin, the latter of which can be detected at an OD of 540 nm. A standard bilirubin curve is generated using the same bilirubin used for treatment and quantified.
Bilirubin concentrations of all testing legs are calculated using linear regression against the standard bilirubin curve. Resulting bilirubin concentrations are compared to neutral pH bilirubin reference leg. The difference in bilirubin quantification (A bilirubin) between the neutral-pH bilirubin reference leg and the low-pH niacinamide treated legs can be analyzed for predicted effect and actual effect.
The effect of niacinamide level on bilirubin degradation was tested at 0.1%, 0.5%, and 3%, by weight, based on the volume of the composition (w/v). A vehicle control is used in this Example as the negative control.

With `NC(=O)c1cccnc1` [niacinamide], for the setting “0.1% (w/v) niacinamide”, the “Avg. IB at pH 3.8” value was 17.713 μg/mL, the “Avg. IB at pH 7.4” value is listed as 20.851 μg/mL, the “Δ IB (actual)” value came to 3.405 and the “Δ IB (predicted)” value was 2.590. In addition, where the note is “0.5% (w/v) niacinamide”, the “Avg. IB at pH 3.8” value amounted to 14.231 μg/mL, the “Avg. IB at pH 7.4” value was 20.185 μg/mL, the “Δ IB (actual)” value was 6.887 and the “Δ IB (predicted)” value is listed as 3.256. Also, for the setting “3% (w/v) niacinamide”, the “Avg. IB at pH 3.8” value is recorded as 9.585 μg/mL, the “Avg. IB at pH 7.4” value stood at 17.087 μg/mL, the “Δ IB (actual)” value came out at 11.533 and the “Δ IB (predicted)” value is given as 6.354. Moreover, the “reduction in bilirubin in the low-pH composition compared with predicted” value (niacinamide in low-pH composition vs observed individual effects of pH and niacinamide level) is “much higher level than predicted”.
